For test [1], the target named is T1, E. coli DNA gyrase (Escherichia coli, UniProt P0AES6).
T1 construct: purchased Inspiralis
The experiment in a line: biochemical. To be noted: E. coli DNA gyrase; read-out: IC50. How it is done: Inhibitory activities for compounds of the present invention were determined on E. coli and S. aureus DNA gyrase and topoisomerase IV in an assay from Inspiralis on streptavidin-coated 96-well microtiter plates from Thermo scientific Pierce. […] After washing off the unbound oligonucleotide, the enzyme test was performed. […] Reaction solutions were incubated at 37° C. for 30 min. After that, the TF buffer (50 mM NaOAc with pH 5.0, 50 mM NaCl and 50 mM MgCl2) was added to terminate the enzymatic reaction. After additional incubation for 30 min at rt, during which biotin-oligonucleotide-plasmid triplex was formed, the unbound plasmid was washed off using TF buffer and SybrGOLD in T10 buffer (10 mM Tris HCl with pH 8.0 and 1 mM EDTA) was added. […] GraphPad Prism 6.0 software was used to calculate the IC50 values. The result is given as the average value of three independent measurements. […] Chemoth.

For test [2], the system named is A. baumannii ATCC 17978. The experiment in a line: Microbroth dilution MIC (CLSI). The format is cell-based. To be noted: Acinetobacter baumannii, ATCC17978; A. baumannii ATCC 17978; read-out: MIC. Here is the method:
(§1) The chemical entities described in the present invention were assessed for their antimicrobial activity using a microbroth dilution assay as recommended by the CLSI (Methods for Dilution Antimicrobial Susceptibility Tests for Bacteria That Grow Aerobically, and Methods for Antimicrobial Susceptibility Testing of Anaerobic Bacteria, Clinical and Laboratory Standards Institute, Document M07-A8, and M11-A8, Wayne, PA 19087, USA, 2012.). Compounds were dissolved by using 100% DMSO. Serial two-fold dilutions of each compound were made by using 100% DMSO as the diluent.
(§2) A library of Gram-negative and Gram-positive microbes and their drug- and multidrug-resistant variants were employed as test organisms. The MIC (minimum inhibitory concentration) was determined as the lowest concentration of an individual drug that lead to no visible growth.

The subject of test [3] is S. aureus ATCC 700699 (VISA). The test is described as follows: Microbroth dilution MIC (CLSI). The format is cell-based. To be noted: Staphylococcus aureus. How it is done: as §1, §2
In general terms: Broth dilution looks for growth in wells or tubes with falling amounts of substance.

For test [4], the system named is E. coli ATCC 25922. The experiment in a line: Microbroth dilution MIC (CLSI). The format is cell-based. To be noted: Escherichia coli, ATCC25922; E. coli ATCC 25922; read-out: MIC. Here is the method:
as §1, §2

Test [5] has as its system E. spp. cloacae ATCC 13047. The test is described as follows: Microbroth dilution MIC (CLSI). The format is cell-based. To be noted: Enterobacter cloacae, ATCC13047; E. spp. cloacae ATCC 13047; read-out: MIC. How it is done:
as §1, §2

For test [6], the system named is P. aeruginosa ATCC 27853. The test is described as follows: Microbroth dilution MIC (CLSI). The format is cell-based. To be noted: Pseudomonas aeruginosa, ATCC27853; P. aeruginosa ATCC 27853; read-out: MIC. Here is the method:
as §1, §2

Test [7] has as its system S. aureus ATCC 43300 (MRSA). The test is described as follows: Microbroth dilution MIC (CLSI). The format is cell-based. To be noted: Staphylococcus aureus. Here is the method:
as §1, §2

Test [8] deals with E. faecium ATCC 700221. The experiment in a line: Microbroth dilution MIC (CLSI). The format is cell-based. To be noted: Enterococcus faecium, ATCC700221. Here is the method:
as §1, §2

For test [9], the system named is S. aureus ATCC 29213. The experiment in a line: Microbroth dilution MIC (CLSI). To be noted: Staphylococcus aureus, ATCC29213; S. aureus ATCC 29213; read-out: MIC. The format is cell-based. Here is the method: as §1, §2
Test [10] concerns K. pneumoniae ATCC 10031. The test is described as follows: Microbroth dilution MIC (CLSI). The format is cell-based. To be noted: Klebsiella pneumoniae, ATCC10031; K. pneumoniae ATCC 10031; read-out: MIC. Here is the method:
as §1, §2

In test [11] the test system is E. faecalis ATCC 29212. The experiment in a line: Microbroth dilution MIC (CLSI). The format is cell-based. To be noted: Enterococcus faecalis, ATCC29212; E. faecalis ATCC 29212; read-out: MIC. Here is the method: as §1, §2
Test [12] addresses T2, E. coli topoisomerase IV (Escherichia coli, UniProt P20083).
T2 construct: purchased Inspiralis
The test is described as follows: biochemical. To be noted: E. coli topo IV, read-out: RA (residual activity of the enzyme); for remaining activity at 1 µM: 1 μM compound; for remaining activity at 10 µM: 10 μM compound. Here is the method: Inhibitory activities for compounds of the present invention were determined on E. coli and S. aureus DNA gyrase and topoisomerase IV in an assay from Inspiralis on streptavidin-coated 96-well microtiter plates from Thermo scientific Pierce. […] After washing off the unbound oligonucleotide, the enzyme test was performed. […] Reaction solutions were incubated at 37° C. for 30 min. After that, the TF buffer (50 mM NaOAc with pH 5.0, 50 mM NaCl and 50 mM MgCl2) was added to terminate the enzymatic reaction. After additional incubation for 30 min at rt, during which biotin-oligonucleotide-plasmid triplex was formed, the unbound plasmid was washed off using TF buffer and SybrGOLD in T10 buffer (10 mM Tris HCl with pH 8.0 and 1 mM EDTA) was added. […] Initial screening was done at 100 or 10 nM concentration of inhibitors against E. coli DNA gyrase or 1 μM or 100 nM concentration against S. aureus DNA gyrase and E. coli and S. aureus topo IV. […] GraphPad Prism 6.0 software was used to calculate the IC50 values. The result is given as the average value of three independent measurements. […] Chemoth.

The mark [13] stands for this setting: S. aureus ATCC 700699 (VISA), read-out: MIC.
Where [14] appears, read: S. aureus ATCC 43300 (MRSA), read-out: MIC.
Where [15] appears, read: E. faecium ATCC 700221, read-out: MIC.

The structures appear in SMILES notation. pIC50: −log10 of the molar value. Converted amounts (≈) assume the structure as drawn. Like-named read-outs stand apart in the source and are kept apart here. Some results are limits rather than exact numbers.

T2 sequence (P0AFI2 whole entry): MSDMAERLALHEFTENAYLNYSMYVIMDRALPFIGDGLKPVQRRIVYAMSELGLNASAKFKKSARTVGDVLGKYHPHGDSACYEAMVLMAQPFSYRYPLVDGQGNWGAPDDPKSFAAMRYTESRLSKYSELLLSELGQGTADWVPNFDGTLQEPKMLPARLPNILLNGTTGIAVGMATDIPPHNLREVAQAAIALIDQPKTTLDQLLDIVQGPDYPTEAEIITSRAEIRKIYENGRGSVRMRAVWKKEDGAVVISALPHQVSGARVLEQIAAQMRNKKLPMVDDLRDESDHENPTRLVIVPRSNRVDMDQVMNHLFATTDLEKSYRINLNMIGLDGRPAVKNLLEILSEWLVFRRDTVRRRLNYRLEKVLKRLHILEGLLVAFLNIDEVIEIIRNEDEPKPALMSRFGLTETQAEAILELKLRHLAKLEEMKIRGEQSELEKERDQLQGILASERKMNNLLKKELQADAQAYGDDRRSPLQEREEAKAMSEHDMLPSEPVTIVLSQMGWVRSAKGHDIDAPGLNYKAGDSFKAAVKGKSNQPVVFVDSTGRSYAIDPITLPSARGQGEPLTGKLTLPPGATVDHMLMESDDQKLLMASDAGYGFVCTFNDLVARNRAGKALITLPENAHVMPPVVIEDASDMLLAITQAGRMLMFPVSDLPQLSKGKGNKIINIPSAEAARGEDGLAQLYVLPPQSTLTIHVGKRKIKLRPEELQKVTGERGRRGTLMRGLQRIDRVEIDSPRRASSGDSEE
T2 sequence (P20083 whole entry): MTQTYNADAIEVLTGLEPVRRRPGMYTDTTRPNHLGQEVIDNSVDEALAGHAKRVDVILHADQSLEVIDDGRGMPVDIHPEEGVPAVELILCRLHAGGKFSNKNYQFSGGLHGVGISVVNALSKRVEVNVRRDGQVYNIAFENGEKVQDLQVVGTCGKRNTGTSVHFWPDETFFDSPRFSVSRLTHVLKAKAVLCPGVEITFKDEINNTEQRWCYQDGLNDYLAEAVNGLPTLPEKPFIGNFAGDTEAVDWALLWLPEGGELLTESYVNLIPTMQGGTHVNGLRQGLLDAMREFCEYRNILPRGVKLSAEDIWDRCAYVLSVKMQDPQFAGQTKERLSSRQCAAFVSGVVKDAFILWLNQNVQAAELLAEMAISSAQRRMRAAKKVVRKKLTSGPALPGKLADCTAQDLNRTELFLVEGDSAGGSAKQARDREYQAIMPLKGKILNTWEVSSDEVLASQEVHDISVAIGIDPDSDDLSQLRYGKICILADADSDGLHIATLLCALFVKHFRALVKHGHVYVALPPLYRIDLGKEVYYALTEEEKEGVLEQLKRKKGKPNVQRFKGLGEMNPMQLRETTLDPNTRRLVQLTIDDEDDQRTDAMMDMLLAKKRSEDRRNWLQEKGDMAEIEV

In general, pIC50 refers to the negative decadic logarithm of the IC50, by convention in mol/L. As a reminder, the MIC is the least concentration at which growth counts as inhibited. With `Cc1[nH]c(C(=O)Nc2ccc(-c3noc(=O)[nH]3)cc2N2CCNCC2)c(Cl)c1Cl` [Example 5, 4-(2-(3,4-Dichloro-5-methyl-1H-pyrrole-2-carboxamido)-5-(5-oxo-4,5-dihydro-1,2,4-oxadiazol-3-yl)phenyl)piperazin-1-ium chloride], the pIC50 in [1] was 8.22. For the same compound, the MIC in test [2], in test [3], in [4], in test [5], in [6] and in test [7] was more than 64 µg/mL in each case. The MIC in test [8], in test [9], in test [10] and in [11] was more than 64 µg/mL in each case.
For the compound `Cc1[nH]c(C(=O)Nc2ccc(-c3noc(=O)[nH]3)cc2N2CCCC2)c(Cl)c1Cl` [Example 6, 3,4-Dichloro-5-methyl-N-(4-(5-oxo-4,5-dihydro-1,2,4-oxadiazol-3-yl)-2-(pyrrolidin-1-yl)phenyl)-1H-pyrrole-2-carboxamide], the pIC50 in test [1] is 7.90. Also, the MIC was more than 64 µg/mL in test [2]; less than 0.0313 µg/mL in test [3] (setting [13]); more than 64 µg/mL in [4]; more than 64 µg/mL in [5]; more than 64 µg/mL in test [6]; 0.5 µg/mL (≈ 1.18 µM) in test [7] (setting [14]). Besides, the MIC in test [8] (setting [15]) was 0.0625 µg/mL (≈ 0.148 µM); in test [9], more than 64 µg/mL; in test [10], more than 64 µg/mL; in [11], less than 0.0312 µg/mL.
`Cc1[nH]c(C(=O)Nc2ccc(-c3noc(=O)[nH]3)cc2N2CCN(c3ccccc3)CC2)c(Cl)c1Cl` [Example 7, 3,4-Dichloro-5-methyl-N-(4-(5-oxo-4,5-dihydro-1,2,4-oxadiazol-3-yl)-2-(4-phenylpiperazin-1-yl)phenyl)-1H-pyrrole-2-carboxamide]: the negative logarithm of the IC50 (pIC50) in test [1] was 6.96. Besides, the MIC in test [2] is more than 64 µg/mL; in test [3] (setting [13]), 2 µg/mL (≈ 3.9 µM); in test [4], more than 64 µg/mL; in test [5], more than 64 µg/mL; in test [6], more than 64 µg/mL; in [7] (setting [14]), 0.0625 µg/mL (≈ 0.122 µM). Moreover, the MIC is 4 µg/mL (≈ 7.79 µM) in test [8] (setting [15]), 4 µg/mL (≈ 7.79 µM) in test [9], more than 64 µg/mL in [10] and 0.125 µg/mL (≈ 0.243 µM) in [11].
As to `Cc1[nH]c(C(=O)Nc2ccc(C(=O)O)cc2NC2CCNCC2)c(Cl)c1Cl.Cl` [Example 15, 4-((5-Carboxy-2-(3,4-dichloro-5-methyl-1H-pyrrole-2-carboxamido)phenyl)amino)piperidin-1-ium chloride], the pIC50 in test [1] was 6.27. Besides, the MIC in [2], in test [3] (setting [13]), in [4], in [5], in test [6] and in test [7] (setting [14]) was more than 64 µg/mL each time. For the same compound, the MIC in test [8] (setting [15]), in [9], in [10] and in [11] was more than 64 µg/mL throughout.
For `Cc1[nH]c(C(=O)Nc2ccc(-c3n[nH]c(=O)o3)cc2OCc2ccncc2)c(Cl)c1Cl` [Example 30, 3,4-Dichloro-5-methyl-N-(4-(5-oxo-4,5-dihydro-1,3,4-oxadiazol-2-yl)-2-(pyridin-4-ylmethoxy)phenyl)-1H-pyrrole-2-carboxamide], in test [1], the pIC50 was 7.37.
Still for that read-out and setting: the same measure for `Cc1[nH]c(C(=O)Nc2ccc(-c3n[nH]c(=O)o3)cc2OCc2cccs2)c(Cl)c1Cl` [Example 33, 3,4-Dichloro-5-methyl-N-(4-(5-oxo-4,5-dihydro-1,3,4-oxadiazol-2-yl)-2-(thiophen-2-ylmethoxy)phenyl)-1H-pyrrole-2-carboxamide]: 5.43.
`Cc1[nH]c(C(=O)Nc2ccc(-c3n[nH]c(=O)o3)cc2N2CCNCC2)c(Cl)c1Cl.Cl` [Example 41, 4-(2-(3,4-Dichloro-5-methyl-1H-pyrrole-2-carboxamido)-5-(5-oxo-4,5-dihydro-1,3,4-oxadiazol-2-yl)phenyl)piperazin-1-ium chloride]: the pIC50 in [1] is 7.75. For the same compound, the MIC in test [2] was not below 64 µg/mL; in test [4], not below 64 µg/mL; in test [5] it was not below 64 µg/mL; in test [6] it was not below 64 µg/mL; in test [7] (setting [14]), 4 µg/mL; in test [9], 2 µg/mL. Besides, the MIC in test [10] was found to be 0.25 µg/mL; in test [11], 0.5 µg/mL. The remaining activity at 1 µM in test [12] worked out at 71%. Also, in test [12], the remaining activity at 10 µM is 48%.
For the compound `Cc1[nH]c(C(=O)Nc2ccc(-c3n[nH]c(=O)o3)cc2N2CCOCC2)c(Cl)c1Cl` [Example 42, 3,4-Dichloro-5-methyl-N-(2-morpholino-4-(5-oxo-4,5-dihydro-1,3,4-oxadiazol-2-yl)phenyl)-1H-pyrrole-2-carboxamide], in [1], the pIC50 is 7.09. For the same compound, the MIC is not below 64 µg/mL in test [2]; not below 64 µg/mL in [4]; not below 64 µg/mL in test [5]; not below 64 µg/mL in test [6]; 0.25 µg/mL (≈ 0.57 µM) in test [7] (setting [14]); 0.25 µg/mL (≈ 0.57 µM) in test [9]. Besides, the MIC in [10] is not below 64 µg/mL; in test [11] it was 0.125 µg/mL (≈ 0.285 µM). The remaining activity at 1 µM in [12] came out at 66%. Further, in [12], the remaining activity at 10 µM worked out at 54%.
Take `Cc1[nH]c(C(=O)Nc2ccc(-c3n[nH]c(=O)o3)cc2N2CCOC(C)C2)c(Cl)c1Cl` (centres unmarked) [Example 43, 3,4-Dichloro-5-methyl-N-(2-(2-methylmorpholino)-4-(5-oxo-4,5-dihydro-1,3,4-oxadiazol-2-yl)phenyl)-1H-pyrrole-2-carboxamide]: the negative-log IC50 (pIC50) in test [1] is 7.27. Also, the MIC in test [2], in [4], in test [5], in [6], in test [7] (setting [14]) and in test [9] was not below 64 µg/mL each time. In addition, the MIC was not below 64 µg/mL in test [10] and 1 µg/mL (≈ 2.21 µM) in test [11]. Moreover, the remaining activity at 1 µM in [12] is 103%. In test [12], the remaining activity at 10 µM was found to be 102%.
Take `Cc1[nH]c(C(=O)Nc2ccc(-c3n[nH]c(=O)o3)cc2N2CC(C)OC(C)C2)c(Cl)c1Cl` (centres unmarked) [Example 44, 3,4-dichloro-N-(2-(2,6-dimethylmorpholino)-4-(5-oxo-4,5-dihydro-1,3,4-oxadiazol-2-yl)phenyl)-5-methyl-1H-pyrrole-2-carboxamide]: in test [1], the pIC50 is 6.96. In [12], the remaining activity at 1 µM stood at 105% and the remaining activity at 10 µM is 105%.
Consider `Cc1[nH]c(C(=O)Nc2ccc(C(=O)NS(C)(=O)=O)cc2N2CCOCC2)c(Cl)c1Cl` [Example 45, 3,4-Dichloro-5-methyl-N-(4-((methylsulfonyl)carbamoyl)-2-morpholinophenyl)-1H-pyrrole-2-carboxamide], for which the pIC50 in test [1] was 6.61.

Source of the values: patent publication US20250002455A1, “NEW N-PHENYLPYRROLAMIDE INHIBITORS OF DNA GYRASE AND TOPOISOMERASE IV WITH ANTIBACTERIAL ACTIVITY” (priority 2020, published 2025).
